Source: patent US11702418B2, “SOS1 inhibitors” (priority 2019, dated 2023)
Counter-ions that a name gives are not always drawn. Like-named read-outs stand apart in the source and are kept apart here.

Experiments:
pERK in MKN1 cells = experiment: cells; type: cell-based; settings: Homo sapiens
Method: The cells were incubated for approximately 0.5-1 hour with the compounds solubilized in DMSO at 37° C. Cells were immediately fixed by adding 50 μL of 4% formaldehyde to all wells in a fume hood and the plates were incubated for 20 minutes at room temperature. The formaldehyde was discarded from the plates and 150 μL of ice-cold methanol was added to permeabilize the cells for 10 minutes at −20° C. The methanol was discarded from each of the plates and any liquid remaining in the plate by tapping the plate against paper towels. […] The plates were incubated overnight at 4° C. on a shaker.
On Assay day 2, the primary antibody solution was removed. […] The secondary antibody solution as removed and each plate was washed with PBST 3× times. Any liquid remaining was discarded and the plate was imaged using the Licor Odyssey machine according to the manufacturer's instruction, using a set focus length at 3 mm and both 800 nm and 700 nm filters. The GAPDH normalized scan values for each well were divided by the average of vehicle wells to get the % of pERK inhibition. The IC50 values were then calculated with the Graph pad Prism software.

[1] = biological target: recombinant human SOS1 polypeptide (amino acids 560-1049) (Homo sapiens (Human), UniProt Q07889); experiment: biochemical; type: binding
[2] = read-out: Ki, Inhibition of Labeled Tracer Binding to SOS1
[3] = MKN-1, pERK inhibition, In-Cell Western, MKN1 or H358 cells (Table 24 does not say which), 0.5-1 hour incubation, read-out: IC50
[4] = HTRF displacement, Cy5 labelled tracer, Morrison equation for competitive binding, read-out: Ki, Inhibition of Labeled Tracer Binding to SOS1

Sequence of recombinant human SOS1 polypeptide (amino acids 560-1049) (Q07889 560-1049): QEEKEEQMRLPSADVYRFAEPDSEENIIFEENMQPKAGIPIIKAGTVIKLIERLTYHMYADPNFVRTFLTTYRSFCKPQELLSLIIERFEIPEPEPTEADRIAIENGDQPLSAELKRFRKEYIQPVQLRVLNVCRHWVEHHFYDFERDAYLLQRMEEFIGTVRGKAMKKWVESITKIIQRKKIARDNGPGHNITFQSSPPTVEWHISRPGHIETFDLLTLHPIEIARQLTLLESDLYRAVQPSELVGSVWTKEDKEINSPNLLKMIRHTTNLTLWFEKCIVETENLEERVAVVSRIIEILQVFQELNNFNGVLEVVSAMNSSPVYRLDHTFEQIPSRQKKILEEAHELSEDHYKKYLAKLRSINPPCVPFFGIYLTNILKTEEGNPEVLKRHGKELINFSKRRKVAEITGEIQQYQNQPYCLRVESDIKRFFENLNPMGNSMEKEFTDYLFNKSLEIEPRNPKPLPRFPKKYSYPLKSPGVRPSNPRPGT

Row | SMILES | IC50 (pERK in MKN1 cells; [3]) [nM] | Ki [1, 4] [nM] | further results
1 | Cc1c(C#N)cccc1[C@@H](C)Nc1nnc(C)c2ccc(N3CCN4CCOC[C@@H]4C3)cc12 [Example 10-56, 3-((R)-1-((7-((S)-hexahydropyrazino[2,1-c][1,4]oxazin-8(1H)-yl)-4-methylphthalazin-1-yl)amino)ethyl)-2-methylbenzonitrile Formate salt] | – | – | IC50 (pERK in MKN1 cells; MKN-1): 26 nM; Ki [1, 2]: 1.59 nM
2 | Cc1c([C@@H](C)Nc2nnc(C)c3ccc(N4CCNC[C@@H](F)C4)cc23)cccc1C(F)(F)F [Example 10-63, 7-((R)-6-fluoro-1,4-diazepan-1-yl)-4-methyl-N-((R)-1-(2-methyl-3-(trifluoromethyl)phenyl)ethyl)phthalazin-1-amine Hydrochloride salt] | – | – | IC50 (pERK in MKN1 cells; MKN-1): 50 nM; Ki [1, 2]: 0.54 nM
3 | Cc1c(C#N)cccc1[C@@H](C)Nc1nnc(C)c2cnc(N3CCC(N(C)C)CC3)cc12 [Example 12-28] | 17 | 1.53 | –
4 | Cc1nnc(N[C@H](C)c2ccc(F)cc2F)c2cc(N3CC(C)(O)C3)ncc12 [Example 12-47] | 307 | 38.7 | –
5 | Cc1nnc(N[C@H](C)c2cc(F)cc(C(F)(F)F)c2)c2cc(N3CCOCC3)ccc12 [Example 10-50, (R)-N-(1-(3-fluoro-5-(trifluoromethyl)phenyl)ethyl)-4-methyl-7-morpholinophthalazin-1-amine] | 205 | 3.74 | –
6 | Cc1c(C#N)cccc1[C@@H](C)Nc1nnc(C)c2cnc(N3CC(N(C)C)C3)cc12 [Example 12-54] | 45 | 5.37 | –
7 | Cc1c(C#N)cccc1[C@@H](C)Nc1nnc(C)c2cnc(N3CCN(c4cnn(C)c4)CC3)cc12 [Example 12-36] | 12 | 0.99 | –
8 | Cc1nnc(N[C@H](C)c2cccc(C(F)(F)F)c2F)c2cc(N3CCC(N(C)C)CC3)ncc12 [Example 12-64] | 29 | 0.51 | –
9 | Cc1nnc(N[C@H](C)c2cc(F)cc(C#N)c2)c2cc(N3CCOCC3)ncc12 [Example 6-17, (R)-3-fluoro-5-(1-((4-methyl-7-morpholinopyrido[3,4-d]pyridazin-1-yl)amino)ethyl)benzonitrile] | 412 | 56.5 | –
10 | Cc1nnc(N[C@H](C)c2cccc(C(F)(F)C(C)(C)O)c2F)c2cc(N3CC4CC(C3)O4)ncc12 [Example 20-3, 1-(3-((1R)-1-((7-(6-oxa-3-azabicyclo[3.1.1]heptan-3-yl)-4-methylpyrido[3,4-d]pyridazin-1-yl)amino)ethyl)-2-fluorophenyl)-1,1-difluoro-2-methylpropan-2-ol] | 16 | 0.92 | –
11 | COc1cc2c(N[C@H](C)c3ccc(-c4ccccc4CN(C)C)s3)nnc(C(F)(F)F)c2cc1OC [Example 5-4, (R)—N-(1-(5-(2-((dimethylamino)methyl)phenyl)thiophen-2-yl)ethyl)-6,7-dimethoxy-4-(trifluoromethyl)phthalazin-1-amine] | 1620 | 47.9 | –
12 | Cc1c([C@@H](C)Nc2nnc(C)c3ccc(OC[C@@H]4CCCN4C)cc23)cccc1C(F)(F)F [Example 10-24, 4-methyl-N-((R)-1-(2-methyl-3-(trifluoromethyl)phenyl)ethyl)-7-(((S)-1-methylpyrrolidin-2-yl)methoxy)phthalazin-1-amine hydrochloride salt] | – | – | IC50 (pERK in MKN1 cells; MKN-1): 69 nM; Ki [1, 2]: 1.34 nM
13 | Cc1c([C@@H](C)Nc2nnc(C)c3ccc(O[C@H]4CCOC4)cc23)cc(N)cc1C(F)(F)F [Example 15-3, N-((R)-1-(5-amino-2-methyl-3-(trifluoromethyl)phenyl)ethyl)-4-methyl-7-(((S)-tetrahydrofuran-3-yl)oxy)phthalazin-1-amine] | 34 | 0.94 | –
14 | Cc1c(C#N)cccc1[C@@H](C)Nc1nnc(C)c2cnc(N3CC4(CCN(CC(F)(F)F)C4)C3)cc12 [Example 12-78] | 94 | 2.66 | –
15 | Cc1nnc(N[C@H](C)c2cc(F)cc(C#N)c2)c2cc(N3CCOCC3)ccc12 [Example 10-52, (R)-3-fluoro-5-(1-((4-methyl-7-morpholinophthalazin-1-yl)amino)ethyl)benzonitrile] | 286 | 44.5 | –
16 | Cc1c(C#N)cccc1[C@@H](C)Nc1nnc(C)c2ccc(N3CCN4CCCC[C@@H]4C3)cc12 [Example 10-82, 2-methyl-3-((R)-1-((4-methyl-7-((R)-octahydro-2H-pyrido[1,2-a]pyrazin-2-yl)phthalazin-1-yl)amino)ethyl)benzonitrile Hydrochloride salt] | – | – | IC50 (pERK in MKN1 cells; MKN-1): 52 nM; Ki [1, 2]: 0.86 nM
17 | Cc1c(C#N)cccc1[C@@H](C)Nc1nnc(C)c2cnc(N3CCC(N4CCC4)CC3)cc12 [Example 12-29] | 16 | 1.67 | –
18 | Cc1c(C(F)F)cccc1[C@@H](C)Nc1nnc(C)c2cnc(N3CCN4CCOC[C@@H]4C3)cc12 [Example 12-42] | 27 | 0.79 | –

Row | SMILES | IC50 (pERK in MKN1 cells; [3]) [nM] | Ki [1, 4] [nM] | further results
19 | Cc1nnc(N[C@H](C)c2cc(N)cc(C(F)(F)F)c2)c2cc(O[C@H]3CCOC3)ccc12 [Example 15-1, N—((R)-1-(3-amino-5-(trifluoromethyl)phenyl)ethyl)-4-methyl-7-(((S)-tetrahydrofuran-3-yl)oxy)phthalazin-1-amine] | 28 | 3.37 | –
20 | Cc1c(C#N)cccc1[C@@H](C)Nc1nnc(C)c2ccc(N3C[C@H]4CC[C@@H]3CN4C)cc12 [Example 10-71, 2-methyl-3-((R)-1-((4-methyl-7-((1R,4R)-5-methyl-2,5-diazabicyclo[2.2.2]octan-2-yl)phthalazin-1-yl)amino)ethyl)benzonitrile] | 19 | 0.39 | –
21 | Cc1nnc(N[C@H](C)c2cc(N)c(F)c(C(F)(F)F)c2)c2cc(N3C[C@H]4C[C@@H]3CO4)ccc12 [Example 16-14, N-((R)-1-(3-amino-4-fluoro-5-(trifluoromethyl)phenyl)ethyl)-7-((1R,4R)-2-oxa-5-azabicyclo[2.2.1]heptan-5-yl)-4-methylphthalazin-1-amine] | 37 | 1.71 | –
22 | Cc1c([C@@H](C)Nc2nnc(C)c3ccc(C4CCNC(=O)C4)cc23)cccc1C(F)(F)F (stereo partly drawn) [Example 10-3, 4-(1-methyl-4-(((R)-1-(2-methyl-3-(trifluoromethyl)phenyl)ethyl)amino)phthalazin-6-yl)piperidin-2-one] | 85 | 0.71 | –
23 | Cc1nnc(N[C@H](C)c2cc(O)cc(C(F)(F)F)c2)c2cc(N3CCOCC3)ccc12 [Example 21-2, (R)-3-(1-((4-methyl-7-morpholinophthalazin-1-yl)amino)ethyl)-5-(trifluoromethyl)phenol] | – | – | IC50 (pERK in MKN1 cells; MKN-1, pERK inhibition, In-Cell Western, MKN1 or H358 cells (Table 24 does not say which), 0.5-1 hour incubation): 137 nM; Ki [1]: 1.67 nM
24 | Cc1nnc(N[C@H](C)c2ccc(F)cc2F)c2cc(N3CC(C)(N(C)C)C3)ncc12 [Example 12-49] | 161 | 39.7 | –
25 | Cc1c([C@@H](C)Nc2nnc(C)c3cnc(N4CC(C)(CO)C4)cc23)cccc1C(F)(F)F [Example 12-39] | 75 | 0.91 | –
26 | Cc1c(C#N)cccc1[C@@H](C)Nc1nnc(C)c2cnc(N3CC4CC(C3)O4)cc12 [Example 12-23] | 46 | 1.05 | –
27 | Cc1nnc(N[C@H](C)c2cccc(F)c2F)c2cc(N3CC(C)(N(C)C)C3)ncc12 [Example 12-83] | 749 | 50.6 | –
28 | Cc1c(C#N)cccc1[C@@H](C)Nc1nnc(C)c2cnc(N3CC4(CCN(C)C4)C3)cc12 [Example 12-51] | 48 | 0.79 | –
29 | Cc1c([C@@H](C)Nc2nncc3ccc(N4CCn5cc(C(F)(F)F)nc5C4C)cc23)cccc1C(F)(F)F (stereo partly drawn) [Example 1-47, 7-(8-methyl-2-(trifluoromethyl)-5,6-dihydroimidazo[1,2-a]pyrazin-7(8H)-yl)-N-((R)-1-(2-methyl-3-(trifluoromethyl)phenyl)ethyl)phthalazin-1-amine] | 349 | 2.08 | –
30 | Cc1c([C@@H](C)Nc2nnc(C)c3ccc(N4CCC(C)(N(C)C)CC4)cc23)cccc1C(F)(F)F [Example 10-42, (R)-7-(4-(dimethylamino)-4-methylpiperidin-1-yl)-4-methyl-N-(1-(2-methyl-3-(trifluoromethyl)phenyl)ethyl)phthalazin-1-amine hydrochloride salt] | – | – | IC50 (pERK in MKN1 cells; MKN-1): 43 nM; Ki [1, 2]: 0.31 nM
31 | Cc1c([C@@H](C)Nc2nnc(C)c3ccc(N4CCN(C)CC4)cc23)cccc1C(F)(F)F [Example 6-1, (R)-4-methyl-N-(1-(2-methyl-3-(trifluoromethyl)phenyl)ethyl)-7-(4-methylpiperazin-1-yl)phthalazin-1-amine] | 79 | 0.11 | –
32 | Cc1nnc(N[C@H](C)c2cc(N)cc(C(F)(F)F)n2)c2cc(N3C[C@H]4CC[C@@H]3CN4C)ccc12 [Example 16-5, N-((R)-1-(4-amino-6-(trifluoromethyl)pyridin-2-yl)ethyl)-4-methyl-7-((1R, 4R)-5-methyl-2,5-diazabicyclo[2.2.2]octan-2-yl)phthalazin-1-amine] | 71 | 5.5 | –
33 | Cc1c(C#N)cccc1[C@@H](C)Nc1nnc(C)c2cnc(N3C[C@H]4C[C@@H]3CO4)cc12 [Example 12-24] | 38 | 1.24 | –
34 | Cc1c([C@@H](C)Nc2nnc(C)c3ccc(N4CCC5(CCNC5)CC4)cc23)cccc1C(F)(F)F [Example 10-36, (R)-4-methyl-N-(1-(2-methyl-3-(trifluoromethyl)phenyl)ethyl)-7-(2,8-diazaspiro[4.5]decan-8-yl)phthalazin-1-amine hydrochloride salt] | – | – | IC50 (pERK in MKN1 cells; MKN-1): 79 nM; Ki [1, 2]: 0.23 nM
35 | Cc1c([C@@H](C)Nc2nnc(C)c3cnc(N4CC5(CCN(C)C5)C4)cc23)cccc1C(F)(F)F [Example 12-17] | 17 | 0.46 | –
36 | Cc1c([C@@H](C)Nc2nncc3ccc(N4CC5(CC(N(C)C)C5)C4)cc23)cccc1C(F)(F)F [Example 1-32, (R)-7-(6-(dimethylamino)-2-azaspiro[3.3]heptan-2-yl)-N-(1-(2-methyl-3-(trifluoromethyl)phenyl)ethyl)phthalazin-1-amine] | 101 | 0.42 | –
